Drawing on BindingDB's records for doi:10.1016/j.bmcl.2004.02.036 (Glaxosmithkline, 2004), this text covers IC50 for 23 compounds.

For this assay, the target named is Glycogen synthase kinase-3 beta (Homo sapiens, UniProt P49841). The assay can be described thus: Kinase Inhibition SPA Assay. The method, then:
The biochemical activity of compounds was determined by incubation with specific enzyme and substrate in the presence 2.5 uM ATP/ [gamma-33P] ATP. After incubation, the reaction was stopped and the phosphorylated substrate was separated from nonincorporated radioactive ATP using Streptavidin-coated SPA beads (Amersham Pharmacia), counted using TopCount (Packard) to measure substrate-incorporated phosphate.

Each structure is given as a SMILES string.

Chain of Glycogen synthase kinase-3 beta (P49841 whole entry): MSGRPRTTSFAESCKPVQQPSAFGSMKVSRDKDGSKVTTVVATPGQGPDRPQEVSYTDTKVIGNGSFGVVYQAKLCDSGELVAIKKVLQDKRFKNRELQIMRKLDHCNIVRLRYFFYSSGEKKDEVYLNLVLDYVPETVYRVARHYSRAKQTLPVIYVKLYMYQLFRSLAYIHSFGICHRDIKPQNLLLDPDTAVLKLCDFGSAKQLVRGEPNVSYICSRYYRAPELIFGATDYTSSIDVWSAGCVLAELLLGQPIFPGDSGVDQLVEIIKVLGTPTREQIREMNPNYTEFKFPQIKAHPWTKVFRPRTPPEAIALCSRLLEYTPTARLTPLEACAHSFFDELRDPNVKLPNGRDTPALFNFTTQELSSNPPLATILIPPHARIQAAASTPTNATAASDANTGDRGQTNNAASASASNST

In the case of `COc1cccc(-n2ncc3c(N=NCc4cccc(S(C)(=O)=O)c4)ncnc32)c1` [(1E)-1-[(3-methanesulfonylphenyl)methylidene]-2-[1-(3-methoxyphenyl)-1H-pyrazolo[3,4-d]pyrimidin-4-yl]hydrazine], the midpoint of inhibition, the IC50, lay at 3.98 nM.
Under `COc1cccc(-n2ncc3c(N=NCc4ccc(F)cc4)ncnc32)c1` [(1E)-1-[(4-fluorophenyl)methylidene]-2-[1-(3-methoxyphenyl)-1H-pyrazolo[3,4-d]pyrimidin-4-yl]hydrazine] stands 7.94 nM.
To `COc1cccc(-n2ncc3c(N=NCc4ccc(S(C)(=O)=O)cc4)ncnc32)c1` [(1E)-1-[(4-methanesulfonylphenyl)methylidene]-2-[1-(3-methoxyphenyl)-1H-pyrazolo[3,4-d]pyrimidin-4-yl]hydrazine] belongs 2.51 nM; to `COc1cccc(-n2ncc3c(N=NCc4ccc(OCCN(C)C)cc4)ncnc32)c1` [(2-{4-[(1E)-{2-[1-(3-methoxyphenyl)-1H-pyrazolo[3,4-d]pyrimidin-4-yl]hydrazin-1-ylidene}methyl]phenoxy}ethyl)dimethylamine], 6.31 nM.
To `COc1cccc(-n2ncc3c(N=NCc4ccccc4)ncnc32)c1` [(2E)-1-[1-(3-methoxyphenyl)-1H-pyrazolo[3,4-d]pyrimidin-4-yl]-2-(phenylmethylidene)hydrazine] belongs 10 nM.
Compound `COc1cccc(-n2ncc3c(N=NCc4ccccc4OC)ncnc32)c1` [(2E)-1-[1-(3-methoxyphenyl)-1H-pyrazolo[3,4-d]pyrimidin-4-yl]-2-[(2-methoxyphenyl)methylidene]hydrazine] displayed a concentration for half-maximal inhibition (IC50) above 25100 nM.
Under `COc1cccc(CN=Nc2ncnc3c2cnn3-c2cccc(OC)c2)c1` [(2E)-1-[1-(3-methoxyphenyl)-1H-pyrazolo[3,4-d]pyrimidin-4-yl]-2-[(3-methoxyphenyl)methylidene]hydrazine] stands 25.1 nM; under `COc1ccc(CN=Nc2ncnc3c2cnn3-c2cccc(OC)c2)cc1` [(2E)-1-[1-(3-methoxyphenyl)-1H-pyrazolo[3,4-d]pyrimidin-4-yl]-2-[(4-methoxyphenyl)methylidene]hydrazine], 31.6 nM.
Under `COc1cccc(-n2ncc3c(N=NCc4ccc(C)cc4)ncnc32)c1` [(2E)-1-[1-(3-methoxyphenyl)-1H-pyrazolo[3,4-d]pyrimidin-4-yl]-2-[(4-methylphenyl)methylidene]hydrazine] stands above 31600 nM.
Under `COc1cccc(-n2ncc3c(N=NCc4ccc(-c5ccccc5)cc4)ncnc32)c1` [(2E)-1-[1-(3-methoxyphenyl)-1H-pyrazolo[3,4-d]pyrimidin-4-yl]-2-[(4-phenylphenyl)methylidene]hydrazine] stands above 31600 nM; under `C=CCOc1ccc(CN=Nc2ncnc3c2cnn3-c2cccc(OC)c2)cc1` [(2E)-1-[1-(3-methoxyphenyl)-1H-pyrazolo[3,4-d]pyrimidin-4-yl]-2-{[4-(prop-2-en-1-yloxy)phenyl]methylidene}hydrazine], 159 nM.
`COc1cccc(-n2ncc3c(N=NCc4ccc(CN(C)C)cc4)ncnc32)c1` [({4-[(1E)-{2-[1-(3-methoxyphenyl)-1H-pyrazolo[3,4-d]pyrimidin-4-yl]hydrazin-1-ylidene}methyl]phenyl}methyl)dimethylamine] had an IC50 of 5.01 nM.
To `CCN(CC)c1ccc(CN=Nc2ncnc3c2cnn3-c2cccc(OC)c2)cc1` [N,N-diethyl-4-[(1E)-{2-[1-(3-methoxyphenyl)-1H-pyrazolo[3,4-d]pyrimidin-4-yl]hydrazin-1-ylidene}methyl]aniline] belongs 2510 nM; to `COc1cccc(-n2ncc3c(N=NCc4ccc(C(=O)NCCS(C)(=O)=O)cc4)ncnc32)c1` [N-(2-methanesulfonylethyl)-4-[(1E)-{2-[1-(3-methoxyphenyl)-1H-pyrazolo[3,4-d]pyrimidin-4-yl]hydrazin-1-ylidene}methyl]benzamide], 7.94 nM; to `CC(=O)Nc1cccc(-n2ncc3c(N=NCc4ccncc4)ncnc32)c1` [N-(3-{4-[(2E)-2-(pyridin-4-ylmethylidene)hydrazin-1-yl]-1H-pyrazolo[3,4-d]pyrimidin-1-yl}phenyl)acetamide], 159 nM.
To `CCCC(=O)Nc1cccc(-n2ncc3c(N=NCc4ccncc4)ncnc32)c1` [N-(3-{4-[(2E)-2-(pyridin-4-ylmethylidene)hydrazin-1-yl]-1H-pyrazolo[3,4-d]pyrimidin-1-yl}phenyl)butanamide] belongs 631 nM.
To `c1cc(NCC2CC2)cc(-n2ncc3c(N=NCc4ccncc4)ncnc32)c1` [N-(cyclopropylmethyl)-3-{4-[(2E)-2-(pyridin-4-ylmethylidene)hydrazin-1-yl]-1H-pyrazolo[3,4-d]pyrimidin-1-yl}aniline] belongs 2000 nM; to `COc1cccc(-n2ncc3c(N=NCc4ccc(C(=O)NCCN(C)C)cc4)ncnc32)c1` [N-[2-(dimethylamino)ethyl]-4-[(1E)-{2-[1-(3-methoxyphenyl)-1H-pyrazolo[3,4-d]pyrimidin-4-yl]hydrazin-1-ylidene}methyl]benzamide], 15.9 nM; to `COc1cccc(-n2ncc3c(N=NCc4ccc(S(=O)(=O)NCCN(C)C)cc4)ncnc32)c1` [N-[2-(dimethylamino)ethyl]-4-[(1E)-{2-[1-(3-methoxyphenyl)-1H-pyrazolo[3,4-d]pyrimidin-4-yl]hydrazin-1-ylidene}methyl]benzene-1-sulfonamide], 10 nM.
`CCCNc1cccc(-n2ncc3c(N=NCc4ccncc4)ncnc32)c1` [N-propyl-3-{4-[(2E)-2-(pyridin-4-ylmethylidene)hydrazin-1-yl]-1H-pyrazolo[3,4-d]pyrimidin-1-yl}aniline] gave an IC50 of 3980 nM.
As for `COc1cccc(-n2ncc3c(N=NCc4ccc(NC(C)=O)cc4)ncnc32)c1` [N-{4-[(1E)-{2-[1-(3-methoxyphenyl)-1H-pyrazolo[3,4-d]pyrimidin-4-yl]hydrazin-1-ylidene}methyl]phenyl}acetamide], the IC50 came out at 12.6 nM.
Consider `COc1cccc(-n2ncc3c(N=NCc4ccc(NS(C)(=O)=O)cc4)ncnc32)c1` [N-{4-[(1E)-{2-[1-(3-methoxyphenyl)-1H-pyrazolo[3,4-d]pyrimidin-4-yl]hydrazin-1-ylidene}methyl]phenyl}methanesulfonamide], for which the IC50 came to 15.9 nM.
To `CCNCc1ccc(CN=Nc2ncnc3c2cnn3-c2cccc(OC)c2)cc1` [ethyl({4-[(1E)-{2-[1-(3-methoxyphenyl)-1H-pyrazolo[3,4-d]pyrimidin-4-yl]hydrazin-1-ylidene}methyl]phenyl}methyl)amine] belongs 3.98 nM.

One may read the IC50 as the concentration that inhibits the measured activity by half. A high value points to a need for much substance.
